According to patent EP4534147A1, “STING ANTAGONIST COMPOUNDS” (Sulis Therapeutics ApS, priority 2023, dated 2025):

What was measured:
[1] = biological target: T1, C-terminal domain (CTD) of human STING (Homo sapiens, UniProt Q86WV6); test: STING binding FP assay I (fluorescence polarization competition binding); design: recombinant human STING protein (155-379); settings: recombinant human STING protein (155-379), 35 nM STING, 4 nM fluorescein-labelled STING ligand (Probe 1), 20 min at room temperature
Description: (§1) The interaction between molecules and the C-terminal domain (CTD) of human STING was evaluated using a competition binding assay. In this assay, recombinant human STING protein (155-379) and a STING binding fluorescent probe were employed. Upon binding of the probe to STING, the rotation of the fluorescent probe is slowed due to the larger molecular size of the protein-bound complex. As a result, emitted light retains its plane of polarization, leading to an increase in fluorescence polarization. Molecules competing for the probe binding site displace the probe, which leads to rapid randomization of the polarization plane of the emitted light and a subsequent decrease in measured fluorescence polarization signal. Change in polarization was measured, allowing a comparative evaluation of the binding affinities of different compounds to the target protein.
(§2) The assay was performed in 96-well plates (ThermoFisher, cat.# 237108) containing 100 µl : 10 µL test compound in 10% DMSO and buffer A (150 mM NaCl, 50 mM HEPES pH 7.5, 1 mM DTT) + 90 µL prepared master mix solution of: 4 nM fluorescein-labelled STING ligand (Probe 1; synthesis described above) in buffer A + 0.055% Tween-20 (v/v) and 35 nM STING in buffer A. Post mixing, plates were agitated at 600 rpm and incubated for 20 min at room temperature. Subsequent measurements of the fluorescence polarization signal were made on a BioTek Synergy-H1 plate reader, using a polarization filter; excitation: 485/20 nm, emission: 528/20 nm) with a gain-setting of 75. IC50 values were determined using a standard non-linear regression four-parameter curve fit in Graphpad Prism.
Target sequence in this assay (Q86WV6 155-379): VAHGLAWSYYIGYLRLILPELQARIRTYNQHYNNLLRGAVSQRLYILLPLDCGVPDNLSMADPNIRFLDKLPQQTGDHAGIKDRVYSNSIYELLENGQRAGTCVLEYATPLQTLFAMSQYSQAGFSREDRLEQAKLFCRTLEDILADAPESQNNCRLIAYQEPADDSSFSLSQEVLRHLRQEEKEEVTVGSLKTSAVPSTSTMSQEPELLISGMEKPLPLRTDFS

STING = biological target: T2, STING (Homo sapiens, UniProt Q86WV6); test: Human FB STING antagonist assay (IFN-a/b release); type: cell-based; settings: Human skin fibroblasts, 2h pre-treatment, 300 nM GSK STING agonist (CAS number: 2138299-34-8) for 20 h, release of IFN-a/b by HEK-Blue IFN-α/β bioassay
T2 construct: endogenous in cells; host or cells: human skin fibroblasts
Description: STING antagonist activity can be determined by a human fibroblast antagonist assay. For this, human skin fibroblasts are pre-treated for 2h with a serial dilution of the compound, and are then stimulated for 20 hours with 300 nM STING agonist (e.g. from GSK, CAS number: 2138299-34-8). Supernatants are then harvested and assessed for IFN-a/b release, which indicates STING activation. IFN-a/b concentration in the supernatant is determined, e.g. using an IFN-α/β bioassay. IC50 values are calculated using a non-linear regression fitting, variable slope (4 parameters).
Human skin fibroblasts were pre-treated for 2h with a serial dilution of test compound followed by stimulation with mock or 300 nM GSK STING agonist (CAS number: 2138299-34-8). Supernatants were harvested after 20 h of STING agonist stimulation. Release of IFN-a/b was determined using HEK-Blue IFN-α/β bioassay (Invivogen). Cellular viability was assessed using Alamar Blue HS assay. IC50 values were estimated using a non-linear regression fitting, variable slope (4 parameters) in GraphPad Prism 9.3.1.

[2] = biological target: T1, C-terminal domain (CTD) of human STING; test: STING binding TR-FRET assay (CisBio Human STING WT Binding Kit); design: purchased CisBio 64BDSTGPEG; settings: recombinant human STING with His-tag, D2-labeled active site probe, 60 min at room temperature
Description: STING binding can be determined by a time-resolved FRET assay. For instance, a STING protein having a His-tag can be used. A D2-labeled active site probe can be used to accept 620 nm emission from Anti-HIS-Tb-STING. Increased fluorescence is measured at 665 nm. Molecules that compete for the probe binding site will result in a lower 665 nm signal. The assay can be performed in low-volume white 96-well plates containing 5 µL compounds in an appropriate diluent buffer. Following 60 minutes incubation at room temperature in the dark, fluorescence emission at 665 nm is measured following 330 nm xenon flash excitation. pIC50 values can be determined using a standard four parameter curve fit.
The affinity of molecules to the C-terminal domain (CTD) of human STING was determined using a commercial Human STING WT Binding Kit (CisBio, cat.# 64BDSTGPEG). In this time-resolved FRET assay, a recombinant human STING protein construct with a His-tag was employed. When bound to STING, a D2-labeled active site probe accepts the 620 nm emission from Anti-HIS-Tb-STING and an increase in fluorescence is measured at 665 nm. Molecules that compete for the probe binding site will result in a low 665 nm signal. The assay was run in CisBio low-volume white 96-well plates (catalog# 66PL96005) containing 5 µL compounds in Diluent Buffer (supplied with the CisBio kit). A solution of 1xSTING, 1x Anti-HIS-Tb and 1X D2-probe in TB detection buffer (kit supplied) was added to the plate. Plates were centrifuged for 2 min at 500 rpm, incubated for 60 min at room temperature in the dark, and then fluorescence emission at 665 nm following 330 nm xenon flash excitation on an BioTek synergy H1 multimode reader (Agilent) was measured. The plC50 values were determined using a standard four parameter curve fit in GraphPad Prism.
Target sequence in this assay (Q86WV6 135-379 limits assumed): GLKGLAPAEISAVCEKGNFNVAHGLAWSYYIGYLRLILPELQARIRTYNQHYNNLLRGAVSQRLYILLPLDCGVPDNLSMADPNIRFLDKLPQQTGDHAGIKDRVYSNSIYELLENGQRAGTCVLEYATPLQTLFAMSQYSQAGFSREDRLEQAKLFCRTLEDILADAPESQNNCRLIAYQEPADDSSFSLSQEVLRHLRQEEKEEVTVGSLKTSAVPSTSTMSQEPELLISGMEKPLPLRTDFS

[3] = biological target: T1, C-terminal domain (CTD) of human STING; test: STING binding FP assay II (as FP assay I, lower STING concentration); design: recombinant human STING protein (155-379); settings: 7 nM STING in buffer A, 4 nM fluorescein-labelled STING ligand (Probe 1)
Description: as §1, §2
Target sequence in this assay (Q86WV6 155-379): as the sequence (Q86WV6 155-379) above
The procedure for STING binding FP assay II is the same as described for STING binding FP assay I, except for a lower STING concentration. In STING binding FP assay II, a concentration of 7 nM STING in buffer A was used.

T2 sequence (Q86WV6 whole entry): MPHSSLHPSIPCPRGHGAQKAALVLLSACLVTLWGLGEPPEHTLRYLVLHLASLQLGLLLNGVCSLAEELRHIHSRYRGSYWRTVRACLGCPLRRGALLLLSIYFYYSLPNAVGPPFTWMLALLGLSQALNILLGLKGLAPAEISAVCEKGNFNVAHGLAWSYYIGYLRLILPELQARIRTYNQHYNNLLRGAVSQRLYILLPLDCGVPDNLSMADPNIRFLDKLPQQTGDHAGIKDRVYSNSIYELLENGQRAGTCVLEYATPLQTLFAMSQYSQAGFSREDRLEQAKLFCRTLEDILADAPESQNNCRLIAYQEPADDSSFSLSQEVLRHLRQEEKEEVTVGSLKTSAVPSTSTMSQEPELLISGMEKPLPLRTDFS

| SMILES | IC50 [1] [nM] | IC50 (STING) [nM] | IC50 [2] [nM] | IC50 [3] [nM] |
| --- | --- | --- | --- | --- |
| CCOC(=O)COC(CCn1c(=NC(=O)c2cc(C)nn2CC)n(C)c2cc(C(N)=O)ccc21)CCn1c(=NC(=O)c2cc(C)nn2CC)n(C)c2cc(C(N)=O)ccc21 (stereo not drawn) [Example 2, Ethyl (3-{5-carbamoyl-2-[(1-ethyl-3-methyl-5-pyrazolyl)carbonylimino]-3-methyl-2,3-dihydro-1H-1,3-benzimidazol-1-yl}-1-(2-{5-carbamoyl-2-[(1-ethyl-3-methyl-5-pyrazolyl)carbonylimino]-3-methyl-2,3-dihydro-1H-1,3-benzimidazol-1-yl}ethyl)propoxy)acetate] | < 30 | 2500 |  |  |
| CCn1nc(C)cc1C(=O)N=c1n(C)c2cc(C(N)=O)ccc2n1CCC(CCn1c(=NC(=O)c2cc(C)nn2CC)n(C)c2cc(C(N)=O)ccc21)OCC(=O)NC1CCN(C)CC1 (stereo not drawn) [Example 10, 1-{3-[(N-1-Methyl-4-piperidylcarbamoyl)methoxy]-5-{5-carbamoyl-2-[(1-ethyl-3-methyl-5-pyrazolyl)carbonylimino]-3-methyl-2,3-dihydro-1H-1,3-benzimidazol-1-yl}pentyl}-2-[(1-ethyl-3-methyl-5-pyrazolyl)carbonylimino]-3-methyl-2,3-dihydro-1H-1,3-benzimidazole-5-carboxamide] |  |  | 0.869 | 3.5 |
| CCn1nc(C)cc1C(=O)N=c1n(C)c2cc(C(N)=O)ccc2n1CCC(CCn1c(=NC(=O)c2cc(C)nn2CC)n(C)c2cc(C(N)=O)ccc21)OCC(=O)N1CCC[C@H]1c1cccc(OC)c1 (stereo partly drawn) [Example 11, 1-(3-{2-[(S)-2-(3-Methoxyphenyl)-1-pyrrolidinyl]-2-oxoethoxy}-5-{5-carbamoyl-2-[(1-ethyl-3-methyl-5-pyrazolyl)carbonylimino]-3-methyl-2,3-dihydro-1H-1 ,3-benzimidazol-1-yl}pentyl)-2-[(1-ethyl-3-methyl-5-pyrazolyl)carbonylimino]-3-methyl-2,3-dihydro-1H-1,3-benzimidazole-5-carboxamide] |  | 3400 | 0.862 | 2 |
| CCn1nc(C)cc1C(=O)N=c1n(C)c2cc(C(N)=O)ccc2n1CCC(CCn1c(=NC(=O)c2cc(C)nn2CC)n(C)c2cc(C(N)=O)ccc21)OCC(=O)N(Cc1ccc(OC)cc1)C1CC1 (stereo not drawn) [Example 14, 1-[3-({N-Cyclopropyl[(p-methoxyphenyl)methyl]carbamoyl}methoxy)-5-{5-carbamoyl-2-[(1-ethyl-3-methyl-5-pyrazolyl)carbonylimino]-3-methyl-2,3-dihydro-1H-1,3-benzimidazol-1-yl}pentyl]-2-[(1-ethyl-3-methyl-5-pyrazolyl)carbonylimino]-3-methyl-2,3-dihydro-1H-1,3-benzimidazole-5-carboxamide] |  |  | 0.659 |  |
| CCn1nc(C)cc1C(=O)N=c1n(C)c2cc(C(N)=O)ccc2n1CCC(CCn1c(=NC(=O)c2cc(C)nn2CC)n(C)c2cc(C(N)=O)ccc21)OCC(=O)N1[C@H](C)COC[C@@H]1C (stereo partly drawn) [Example 17, 1-(3-{2-[(3R,5S)-3,5-Dimethyl-4-morpholinyl]-2-oxoethoxy}-5-{5-carbamoyl-2-[(1-ethyl-3-methyl-5-pyrazolyl)carbonylimino]-3-methyl-2,3-dihydro-1H-1,3-benzimidazol-1-yl}pentyl)-2-[(1-ethyl-3-methyl-5-pyrazolyl)carbonylimino]-3-methyl-2,3-dihydro-1H-1,3-benzimidazole-5-carboxamide] |  |  | 0.54 |  |
| CCn1nc(C)cc1C(=O)N=c1n(C)c2cc(C(N)=O)ccc2n1CCC(CCn1c(=NC(=O)c2cc(C)nn2CC)n(C)c2cc(C(N)=O)ccc21)OCC(=O)N(Cc1ccc(OC)cc1)Cc1ccccn1 (stereo not drawn) [Example 19, 1-(5-{5-Carbamoyl-2-[(1-ethyl-3-methyl-5-pyrazolyl)carbonylimino]-3-methyl-2,3-dihydro-1H-1,3-benzimidazol-1-yl}-3-({[(p-methoxyphenyl)methyl][(2-pyridyl)methyl]carbamoyl}methoxy)pentyl)-2-[(1-ethyl-3-methyl-5-pyrazolyl)carbonylimino]-3-methyl-2,3-dihydro-1H-1,3-benzimidazole-5-carboxamide] |  |  | 1.11 |  |
| CCn1nc(C)cc1C(=O)N=c1n(C)c2cc(C(N)=O)ccc2n1CCC(CCn1c(=NC(=O)c2cc(C)nn2CC)n(C)c2cc(C(N)=O)ccc21)OCC(=O)N1CCC[C@@H]1c1ccc(OC)cc1 (stereo partly drawn) [Example 20, 1-(3-{2-[(R)-2-(p-Methoxyphenyl)-1-pyrrolidinyl]-2-oxoethoxy}-5-{5-carbamoyl-2-[(1-ethyl-3-methyl-5-pyrazolyl)carbonylimino]-3-methyl-2,3-dihydro-1H-1,3-benzimidazol-1-yl}pentyl)-2-[(1-ethyl-3-methyl-5-pyrazolyl)carbonylimino]-3-methyl-2,3-dihydro-1H-1,3-benzimidazole-5-carboxamide] |  |  | 0.95 |  |
| CCNC(=O)COC(CCn1c(=NC(=O)c2cc(C)nn2CC)n(C)c2cc(C(N)=O)ccc21)CCn1c(=NC(=O)c2cc(C)nn2CC)n(C)c2cc(C(N)=O)ccc21 (stereo not drawn) [Example 29, 1-{3-[(N-Ethylcarbamoyl)methoxy]-5-{5-carbamoyl-2-[(1-ethyl-3-methyl-5-pyrazolyl)carbonylimino]-3-methyl-2,3-dihydro-1H-1,3-benzimidazol-1-yl}pentyl}-2-[(1-ethyl-3-methyl-5-pyrazolyl)carbonylimino]-3-methyl-2,3-dihydro-1H-1,3-benzimidazole-5-carboxamide] |  | 5200 |  | 7.1 |
| CCn1nc(C)cc1C(=O)N=c1n(C)c2cc(C(N)=O)ccc2n1CCC(CCn1c(=NC(=O)c2cc(C)nn2CC)n(C)c2cc(C(N)=O)ccc21)OCC(=O)N1CCOC[C@@H]1c1ccccc1 (stereo partly drawn) [Example 30, 1-(3-{2-[(S)-3-Phenyl-4-morpholinyl]-2-oxoethoxy}-5-{5-carbamoyl-2-[(1-ethyl-3-methyl-5-pyrazolyl)carbonylimino]-3-methyl-2,3-dihydro-1H-1,3-benzimidazol-1-yl}pentyl)-2-[(1-ethyl-3-methyl-5-pyrazolyl)carbonylimino]-3-methyl-2,3-dihydro-1H-1,3-benzimidazole-5-carboxamide] |  | 3600 |  | 3.7 |
